These are literature values, as cited in EP0606683B1, “Means for diagnosis of angiogenic diseases” (INSTITUT FÜR DIAGNOSTIKFORSCHUNG GmbH AN DER FREIEN …, priority 1993, dated 2003).

Series [1] deals with deendothelisierten Bereichen der Aorta. The note with it: rabbit, abdominal aorta de-endothelialised by balloon catheter; Kurata et al. 1992.
Series [2] relates to humanen atheromatösen Koronararterien. The note with it: in vitro incubation; Dashwood et al., 1991.

With “^125I-Endothelin 1: ^125I-labelled Endothelin 1, ein Polypeptid aus 21 Aminosäuren; used in cited literature studies”, the “Aufnahme von ^125I-Endothelin 1 in den deendothelisierten Bereichen der Aorta” value in series [1] is listed as “vermehrte Aufnahme”. Further, the “Bindung von ^125I-Endothelin 1 im Bereich der Tunica media sowie in Bereichen der Vasa vasora” value in series [2] is listed as “vermehrte Bindung”.
